Test results as given in US9132118B2, “Taxane analogs for the treatment of brain cancer” (Tapestry Pharmaceuticals, Inc., priority 2007, dated 2015).

Legend:
[1] = tested on: bovine microtubule protein (tubulin plus microtubule associated proteins); assay: In vitro ED50 MT polymerization study (DAPI fluorescence tubulin assay); format: biochemical; conditions: for ED50 Compound/ED50 Paclitaxel: ratio of tubulin polymerization ED50 values; for EC50: tubulin polymerization, 37° C. 30 minutes, percent of maximum assembly at 25 μM paclitaxel
Procedure: In this tubulin binding assay, microtubule protein (MTP) is used as a substrate. The assay contains bovine tubulin plus microtubule associated proteins (MAP). MTP is polymerized into microtubules in the presence of DAPI (4′,6′-diamidino-2-phenylindole), a fluorescent compound. DAPI binds to tubulin; when microtubules are formed and there is an enhancement of fluorescence. The microtubule formation is measured as a function of time, using a fluorescence plate reader. […] The method used is based on the procedure published by Donna M. Barron, et al, “Fluorescence-based high-throughput assay for antimicrotuble drugs” Analytical Biochemistry, 315: 49-56, 2003, which is incorporated by reference in its entirety. The excitation wavelength, in that assay, was set at 370 nm and the emission wavelength was set at 450 nm for the DAPI experiments.
A Bio-Tek FL 600 microplate Fluorescence Reader was used to measure the relative level of fluorescence in the DAPI assay.
Assays were conducted in 96-well plates. […] The final DMSO concentration was 4%. The plates were incubated at 37° C. for 30 minutes and read in a fluorescence plate reader using an excitation wavelength of 360 nm and an emission wavelength of 460 nm. Fluorescence values were corrected for the sample without compound. […] Experiments were done twice in triplicate. Results were subsequently combined and fit to a non-linear regression program.

[2] = tested on: human U251 (glioblastoma) CNS tumor cells
Excerpt: Tumor Model: Each animal was implanted with one million U251 human CNS tumor cells from an in vitro cell line by ic injection with a 25 gauge needle. The day of tumor implantation (May 24, 2006) was designated as day 0. A sufficient number of mice were implanted so that animals with body weights in a range as narrow as possible were selected for the trial on the day of treatment initiation (day 1 after tumor implantation). Animals were randomly assigned to the treatment groups and individually identified by earmark codes.
A portion of this solution was then diluted with the complete vehicle to achieve the lower dosing concentration of 1.2 mg/mL. […] Temozolomide (Temodar, Schering Corporation) was prepared on each day of injection in Klucel+tween 80 at a concentration of 4 mg/mL. Temozolomide was administered within 5 minutes of formulation on the basis of exact body weight using a volume of 0.2 mL/10 g of body weight.
Data Collection: Animal health surveillance was conducted and mortality data were collected daily. The animals were weighed twice weekly starting with the first day of treatment.
Study Duration: The study was terminated 100 days after tumor implantation. Any animal found moribund or whose body weight dropped below 14 g was euthanized prior to study termination.
Parameters Evaluated: Number of 100-day survivors, median day of death, and the increase in lifespan based on median day of death and expressed as a percentage (% ILS), median survival time and the % ILS based on median survival time.
Administration of the Ringer's solution was initiated when animal body weights dropped by greater than 10% and continued until the animal recovered, died, or was euthanized.

[3] = temozolomide 80 mg/kg/dose po q4d×3

| SMILES | ED50 Compound/ED50 Paclitaxel [1] | EC50 [1] [µM] | ILS ([2]; Group 4: TMZ 80 mg/kg, po. QD1, 5, 9) [%] | loss in mean body weight [2, 3] [%] | treatment-related deaths (in words) [2, 3] |
| --- | --- | --- | --- | --- | --- |
| C/C(=C\c1csc(C)n1)[C@@H]1C[C@@H]2O[C@]2(C)CCC[C@H](C)[C@H](O)[C@@H](C)C(=O)C(C)(C)[C@@H](O)CC(=O)O1 [Epothilone B] | 1.11 | 3.31 ± 0.51 |  |  |  |
| Cn1nnc2c(C(N)=O)ncn2c1=O [Temozolomide, reference compound] |  |  | 380 | 8 | without treatment-related deaths |
| CC(=O)O[C@@]12CO[C@@H]1C[C@H](O)[C@@]1(C)C(=O)[C@H](O)C3=C(C)[C@@H](OC(=O)[C@H](O)[C@@H](NC(=O)OC(C)(C)C)c4ccccc4)C[C@@](O)([C@@H](OC(=O)c4ccccc4)[C@H]21)C3(C)C [Docetaxel, docetaxel] | 1.07 | 3.18 ± 0.45 |  |  |  |
